Laboratory results published in publication PMC11111691, “Cystine-knot peptide inhibitors of HTRA1 bind to a cryptic pocket within the active site region” (Nature Communications, 2024).
Positions of bridges follow the written chain, without caps; N, C: chain ends. Residues, ends and D or L forms follow the SMILES beside them.

Experiments:
HTRA3^PD/PDZ, HTRA3^FL = target: T1, HTRA3^PD/PDZ, HTRA3^FL (Homo sapiens, UniProt P83110); assay: H2-OPT selectivity assay, HTRA3; type: biochemical; conditions: 2 µM CKP (0.5 mM 7mer-ABP)
T1 construct: purchased Abcam (FL form); the PD/PDZ form was made in house in E. coli ab134450
Experimental: (§1) Assays with the fluorescence-quenched synthetic substrate Mca-IRRVSYSFK(Dnp)K (H2-OPT)[38],[60] were carried out essentially as described. CKP stock solutions in DMSO were diluted in TNC buffer (dilution series for IC50 determinations, or final concentration of 2 µM for selectivity assay or as indicated for HTRA1/4 mutants) and incubated with enzymes in 96-well black optical bottom plates for 60 min at 37 °C. For selectivity experiments we used the 7mer-ABP as inhibitor, which was incubated with the proteases for 15 min at 37 °C. A 10 mM stock solution of H2-OPT in DMSO was diluted with water, prewarmed at 37 °C and then added to the CKP-enzyme mixtures. The final concentrations in the reaction mixtures were: 1 nM HTRA1^FL, 3 nM HTRA1^PD/PDZ, 1 nM HTRA1^PD, 1 nM HTRA2^PD/PDZ, 3 nM HTRA3^FL, 60 nM HTRA3^PD/PDZ, 6 nM HTRA4^FL, 1 µM HTRA4^PD/PDZ, 1 nM mouse HTRA1^PD, 25 nM HTRA1^PD-A202Y, 1 µM HTRA4^PD/PDZ-Y200A, 0.5 mM 7mer-ABP, 5 µM H2-OPT, and 0.25% DMSO. The kinetics of substrate cleavage was measured at 37 °C on a SpectraMax M5 microplate reader with excitation of 328 nm and emission of 393 nm. The determined initial rates of cleavage were expressed as percent of control (DMSO control) after subtracting the baseline rates (without enzyme). IC50 values were determined by Sigmoidal 4PL modeling of multiple data points from serial dilutions of CKPs using Prism 9 software (GraphPad). […]

HTRA2^PD/PDZ = target: T2, HTRA2^PD/PDZ (Homo sapiens, UniProt O43464); assay: Fluorescence-quenched casein-BODIPY assay, HTRA2; type: biochemical; conditions: 30 nM HTRA2^PD/PDZ, 2 µM CKP (0.5 mM 7mer-ABP)
T2 construct: Human HTRA2^PD/PDZ (A134-E458) was from R & D Systems; purchased R & D Systems 1458-HT-100
T2 sequence (O43464 134-458): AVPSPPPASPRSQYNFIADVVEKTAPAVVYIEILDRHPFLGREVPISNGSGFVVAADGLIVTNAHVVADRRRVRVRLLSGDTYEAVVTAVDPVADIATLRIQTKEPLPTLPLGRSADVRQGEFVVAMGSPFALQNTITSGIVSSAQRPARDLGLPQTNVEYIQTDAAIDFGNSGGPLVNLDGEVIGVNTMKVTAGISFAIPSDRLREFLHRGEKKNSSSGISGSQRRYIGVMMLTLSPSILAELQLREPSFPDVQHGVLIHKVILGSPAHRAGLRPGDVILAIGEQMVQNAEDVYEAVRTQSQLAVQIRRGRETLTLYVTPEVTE
Experimental: The fluorescence-quenched casein-BODIPY® assay (EnzCheck®, Thermo Fisher Scientific) was carried out in TNC buffer (50 mM Tris pH 8.0, 200 mM NaCl, 0.25% CHAPS) at 37 °C in 96-well black optical bottom plates (Nalge Nunc Int., Rochester, NY). Enzymes were incubated with CKPs or DMSO control for 15 min prior to addition of casein substrate. The reactant concentrations were: 30 nM HTRA1^FL, 30 nM HTRA1^PD/PDZ, 30 nM HTRA1^PD, 30 nM HTRA2^PD/PDZ, 30 nM HTRA3^FL, 100 nM HTRA3^PD/PDZ, 30 nM HTRA4^FL, 300 nM HTRA4^PD/PDZ, 2 µM CKP, 5 µg/ml casein substrate and 0.25% DMSO. For selectivity assays, 0.5 mM 7mer-ABP was used as positive control. The kinetics of substrate cleavage were measured at 37 °C on a SpectraMax M5 microplate reader (Molecular Devices) with excitation of 485 nm and emission of 530 nm for 30 min (HTRA1 and HTRA2) or 5 h (HTRA3 and HTRA4). The determined initial rates of cleavage were expressed as percent of control (DMSO control) after subtracting the baseline rates (without enzyme).

HTRA1^PD/PDZ = target: T3, HTRA1^PD/PDZ (Homo sapiens, UniProt Q92743); assay: H2-OPT selectivity assay, HTRA1^PD/PDZ; type: biochemical; conditions: 3 nM HTRA1^PD/PDZ, 2 µM CKP (0.5 mM 7mer-ABP), 5 µM H2-OPT
T3 construct: made in house; host or cells: E. coli
Experimental: as §1

C32 melanoma cells = assay: Cell toxicity assay (CellTiter-Glo), C32; type: cell-based, human; conditions: 0.6-50 µM CKP, 24 h and 72 h, at least three independent experiments
Experimental: (§2) reduction at the highest CKP concentration of 50 µM after 72 h (see results below). The absence of cell toxicity is likely due to the inability of the CKPs to penetrate cell membranes, which was experimentally determined in response to another reviewer. Due to space limitations we have not […]
(§3) Protocol of cell toxicity assay (Figure above):
(§4) HeLa cells or C32 melanoma cells were passaged in DMEM media supplemented with 10% FBS, 1% pen-strep and 1x Glutamax using standard culture conditions (5% CO2, 90% humidity at 37°C). At approximately 95% confluence cells were trypsinized, seeded onto 96-well plates (Corning) at 10,000 cells/well and grown for 24 h. Cells were then incubated with the CKPs 3B3, 1D3-ENI and 1G10-ENI (0, 0.6, 1.9, 5.6, 16.7 and 50 µM) at 37°C for 24 h or for 72h. As a positive control we used staurosporine (STS; 1µM). Cell viability was measured using the CellTiter-Glo luminescent cell viability assay (Promega) on an Envision Multilabel plate reader. Average of at least three independent experiments ± S.D. were plotted in Prism 10. Two-way ANOVA was performed on each dataset and compared to no drug samples and no significant viability reductions were observed, except for some treatments at the […]

HeLa cells = assay: Cell toxicity assay (CellTiter-Glo), HeLa; type: cell-based
Experimental: as §2, §3, §4

T3 sequence (Q92743 161-480): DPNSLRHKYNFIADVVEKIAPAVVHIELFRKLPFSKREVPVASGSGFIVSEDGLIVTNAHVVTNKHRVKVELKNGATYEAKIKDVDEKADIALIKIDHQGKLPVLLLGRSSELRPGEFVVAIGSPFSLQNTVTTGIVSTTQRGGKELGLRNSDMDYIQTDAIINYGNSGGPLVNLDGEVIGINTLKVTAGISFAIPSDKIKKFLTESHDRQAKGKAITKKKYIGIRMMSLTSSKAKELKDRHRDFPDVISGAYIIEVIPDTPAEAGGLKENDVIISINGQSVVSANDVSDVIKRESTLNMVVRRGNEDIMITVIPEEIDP

| Inhibition of HTRA3^FL, H2-OPT (% of control) (HTRA3^PD/PDZ, HTRA3^FL; 3 nM HTRA3^FL) | Inhibition of HTRA3^PD/PDZ, H2-OPT (% of control) (HTRA3^PD/PDZ, HTRA3^FL; 60 nM HTRA3^PD/PDZ, 5 µM H2-OPT) | Inhibition of HTRA2^PD/PDZ, casein-BODIPY cleavage (% of control) (HTRA2^PD/PDZ) | Inhibition of HTRA1^PD/PDZ, H2-OPT (% of control) (HTRA1^PD/PDZ) | Compound | Cell viability, C32 melanoma cells (C32 melanoma cells) | Viability reduction, HeLa cells, 24 h (HeLa cells; 50 µM CKP, 24 h) [%] | Viability reduction, HeLa cells, 72 h (HeLa cells; 50 µM CKP, 72 h) [%] | Cell viability, HeLa cells (HeLa cells; 0.6-50 µM CKP, 24 h and 72 h, at least three independent experiments) |
| --- | --- | --- | --- | --- | --- | --- | --- | --- |
| significantly inhibited | significantly inhibited | significantly inhibited | significantly inhibited | DPMFKLV-phosphonate [7mer-ABP] |  |  |  |  |
|  |  |  |  | CC[C@H](C)[C@H](NC(=O)[C@@H]1CCCN1C(=O)[C@H](CC(=O)O)NC(=O)[C@H](C)NC(=O)[C@@H](N)Cc1c[nH]cn1)C(=O)N[C@H]1CSSC[C@@H]2NC(=O)[C@H](Cc3ccccc3)NC(=O)[C@H](Cc3c[nH]c4ccccc34)NC(=O)[C@H](C)NC(=O)CNC(=O)[C@H](CO)NC(=O)[C@@H]3CSSC[C@@H](C(=O)NCC(=O)N4CCC[C@H]4C(=O)N[C@@H](Cc4ccc(O)cc4)C(=O)N[C@H](C(=O)NCC(N)=O)C(C)C)NC(=O)[C@H](CO)NC(=O)[C@H](Cc4c[nH]c5ccccc45)NC(=O)[C@H]([C@@H](C)O)NC(=O)[C@H](C)NC(=O)[C@H](Cc4ccc(O)cc4)NC(=O)[C@H](Cc4ccc(O)cc4)NC(=O)[C@H](CSSC[C@H](NC(=O)[C@@H]4CCCN4C(=O)[C@H](CCCCN)NC(=O)[C@H](CC(N)=O)NC1=O)C(=O)N[C@@H](CCCCN)C(=O)N[C@@H]([C@@H](C)O)C(=O)N[C@@H](Cc1c[nH]cn1)C(=O)N[C@@H](CC(=O)O)C(=O)N[C@@H](CC(=O)O)C(=O)N3)NC(=O)[C@H](C)NC(=O)[C@H](CCC(N)=O)NC2=O [3B3] (H-HADPICNKPCKTHDDCSGAWFCQACYYATWSCGPYVG-NH2; disulfide 6-22, 10-25, 16-32) | did not appreciably affect cell viability | 9 | 13 | did not appreciably affect cell viability |
